Read-outs that look alike come from different tables or passages of the source.

The source of these data is patent publication US20060241297A1, “Pyridinylamino-pyrimidine derivatives as protein kinase inhibitors” (Cyclacel Limited, priority 2003, published 2006).

Series [1] has as its system Saos-2. Put plainly: 72-h MTT cytotoxicity assay. It is filed as cell-based. Conditions: Homo sapiens. As for the experimental part: (§1) The compounds from the examples above were subjected to a standard cellular proliferation assay using human tumour cell lines obtained from the ATCC (American Type Culture Collection, 10801 University Boulevard, Manessas, Va. 20110-2209, USA). Standard 72-h MTT (thiazolyl blue; 3-[4,5-dimethylthiazol-2-yl]-2,5-diphenyltetrazolium bromide) assays were performed. In short: cells were seeded into 96-well plates according to doubling time and incubated overnight at 37° C. Test compounds were made up in DMSO and a 1/3 dilution series prepared in 100 μL cell media, added to cells (in triplicates) and incubated for 72 ho at 37° C. MTT was made up as a stock of 5 mg/mL in cell media and filter-sterilised. Media was removed from cells followed by a wash with 200 μL PBS. MTT solution was then added at 20 μL per well and incubated in the dark at 37° C. for 4 h. MTT solution was removed and cells again washed with 200 μL PBS. MTT dye was solubilised with 200 μL per well of DMSO with agitation. Absorbance was read at 540 nm and data analysed using curve-fitting software (GraphPad Prism version 3.00 for Windows, GraphPad Software, San Diego Calif. USA) to determine IC50 values (concentration of test compound which inhibits cell growth by 50%). Various modifications and variations of the described aspects of the invention will be apparent to those skilled in the art without departing from the scope and spirit of the invention. Although the invention has been described in connection with specific preferred embodiments, it should be understood that the invention as claimed should not be unduly limited to such specific embodiments. Indeed, various modifications of the described modes of carrying out the invention which are obvious to those skilled in the relevant fields are intended to be within the scope of the following claims.

Series [2] has as its system HT29. The series can be described thus: 72-h MTT cytotoxicity assay. It is filed as cell-based. The following applies: Homo sapiens, HT-29. As for the experimental part:
as §1

The subject of series [3] is A549. Put plainly: 72-h MTT cytotoxicity assay. Type of series: cell-based. The following applies: Homo sapiens. As for the experimental part:
as §1

In series [4] the test system is transformed human cell lines (A549, HT29, Saos-2). The series can be described thus: 72-h MTT cytotoxicity assay, average over cell lines. Type of series: cell-based. As for the experimental part: as §1
(Tetrazolium assays rely on reduction of a dye to a coloured formazan, in cell work by metabolically active cells.)

Series [5] deals with T1, Aurora-A (Homo sapiens, UniProt O14965).
T1 sequence (O14965 1-403): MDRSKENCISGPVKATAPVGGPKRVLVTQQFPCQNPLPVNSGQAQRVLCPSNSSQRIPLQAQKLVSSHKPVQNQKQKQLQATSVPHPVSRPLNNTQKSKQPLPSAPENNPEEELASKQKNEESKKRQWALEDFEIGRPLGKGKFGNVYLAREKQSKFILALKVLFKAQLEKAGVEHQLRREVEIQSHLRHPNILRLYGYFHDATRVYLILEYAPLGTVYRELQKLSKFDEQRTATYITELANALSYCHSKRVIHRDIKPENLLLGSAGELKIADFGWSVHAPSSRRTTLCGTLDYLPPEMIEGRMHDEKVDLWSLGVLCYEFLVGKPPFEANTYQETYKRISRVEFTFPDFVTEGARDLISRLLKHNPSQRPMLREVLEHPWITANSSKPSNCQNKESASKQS
The series can be described thus: Kinase assay, incorporation of radioactive phosphate from ATP. The following applies: 100 μM ATP, 30° C.; read-out: Kinase inhibition Ki Aurora-A. Type of series: biochemical. As for the experimental part: (§2) The compounds from the examples above were investigated for their ability to inhibit the enzymatic activity of various protein kinases. This was achieved by measurement of incorporation of radioactive phosphate from ATP into appropriate polypeptide substrates. Recombinant protein kinases and kinase complexes were produced or obtained commercially. Assays were performed using 96-well plates and appropriate assay buffers (typically 25 mM β-glycerophosphate, 20 mM MOPS, 5 mM EGTA, 1 mM DTT, 1 mM […], pH 7.4), into which were added 2-4 μg of active enzyme with appropriate substrates. The reactions were initiated by addition of Mg/ATP mix (15 mM MgCl2+100 μM ATP with 30-50 kBq per well of [γ-^32P]-ATP) and mixtures incubated as required at 30° C. Reactions were stopped on ice, followed by filtration through p81 filterplates or GF/C filterplates (Whatman Polyfiltronics, Kent, UK). After washing 3 times with 75 mM aq orthophosphoric acid, plates were dried, scintillant added and incorporated radioactivity measured in a scintillation counter (TopCount, Packard Instruments, Pangboume, Berks, UK). Compounds for kinase assay were made up as 10 mM stocks in DMSO and diluted into 10% DMSO in assay buffer. Data was analysed using curve-fitting software (GraphPad Prism version 3.00 for Windows, GraphPad Software, San Diego Calif. USA) to determine IC50 values (concentration of test compound which inhibits kinase activity by 50%.).

Series [6] concerns the target CDK2/cyclin A (Homo sapiens, UniProt P24941). Described as above. It is filed as biochemical. Conditions: 100 μM ATP, 30° C.; read-out: Kinase inhibition Ki CDK2/cyclin A. As for the experimental part: as §2
In series [7] the target is CDK2/cyclin E (Homo sapiens, UniProt P24941). The description is as above. Conditions: 100 μM ATP, 30° C.; read-out: Kinase inhibition Ki CDK2/cyclin E. Type of series: biochemical. As for the experimental part: as §2
The target of series [8] is CDK4/cyclin D1 (Homo sapiens, UniProt P11802). The series is described as above. It is filed as biochemical. The following applies: 100 μM ATP, 30° C.; read-out: Kinase inhibition Ki CDK4/cyclin D1. As for the experimental part: as §2
CDK4/cyclin D1, sequence (P11802 whole entry): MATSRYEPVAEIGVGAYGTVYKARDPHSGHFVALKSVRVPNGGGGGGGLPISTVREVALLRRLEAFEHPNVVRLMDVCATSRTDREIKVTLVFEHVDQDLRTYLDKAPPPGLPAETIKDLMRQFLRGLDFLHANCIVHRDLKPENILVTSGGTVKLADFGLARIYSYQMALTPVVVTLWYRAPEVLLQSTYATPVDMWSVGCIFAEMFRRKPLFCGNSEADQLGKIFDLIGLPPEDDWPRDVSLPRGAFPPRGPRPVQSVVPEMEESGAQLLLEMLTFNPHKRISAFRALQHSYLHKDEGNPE
CDK4/cyclin D1, sequence (P24385 whole entry partner): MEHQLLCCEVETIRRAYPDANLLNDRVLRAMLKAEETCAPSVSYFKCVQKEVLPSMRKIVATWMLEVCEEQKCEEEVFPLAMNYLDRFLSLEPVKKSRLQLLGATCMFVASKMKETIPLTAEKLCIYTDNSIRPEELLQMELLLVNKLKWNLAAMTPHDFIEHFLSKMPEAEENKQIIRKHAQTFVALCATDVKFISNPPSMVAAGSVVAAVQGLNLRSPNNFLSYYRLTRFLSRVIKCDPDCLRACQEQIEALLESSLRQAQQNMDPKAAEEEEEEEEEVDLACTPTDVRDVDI
For series [9], the target named is CDK9/cyclin T1 (Homo sapiens, UniProt P50750). The description is as above. It is filed as biochemical. The following applies: 100 μM ATP, 30° C.; read-out: Kinase inhibition Ki CDK9/cyclin T1. As for the experimental part: as §2
CDK9/cyclin T1, sequence (P50750 whole entry): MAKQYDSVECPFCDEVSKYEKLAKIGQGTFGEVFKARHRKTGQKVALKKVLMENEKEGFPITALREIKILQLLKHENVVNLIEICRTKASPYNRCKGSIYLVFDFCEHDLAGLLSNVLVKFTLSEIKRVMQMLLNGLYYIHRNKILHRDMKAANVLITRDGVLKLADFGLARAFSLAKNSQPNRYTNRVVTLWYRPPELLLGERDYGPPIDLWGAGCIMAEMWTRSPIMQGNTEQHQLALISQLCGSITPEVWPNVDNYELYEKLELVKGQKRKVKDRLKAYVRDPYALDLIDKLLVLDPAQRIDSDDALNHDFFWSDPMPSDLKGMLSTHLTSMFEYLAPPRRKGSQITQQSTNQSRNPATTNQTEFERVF
CDK9/cyclin T1, sequence (O60563 whole entry partner): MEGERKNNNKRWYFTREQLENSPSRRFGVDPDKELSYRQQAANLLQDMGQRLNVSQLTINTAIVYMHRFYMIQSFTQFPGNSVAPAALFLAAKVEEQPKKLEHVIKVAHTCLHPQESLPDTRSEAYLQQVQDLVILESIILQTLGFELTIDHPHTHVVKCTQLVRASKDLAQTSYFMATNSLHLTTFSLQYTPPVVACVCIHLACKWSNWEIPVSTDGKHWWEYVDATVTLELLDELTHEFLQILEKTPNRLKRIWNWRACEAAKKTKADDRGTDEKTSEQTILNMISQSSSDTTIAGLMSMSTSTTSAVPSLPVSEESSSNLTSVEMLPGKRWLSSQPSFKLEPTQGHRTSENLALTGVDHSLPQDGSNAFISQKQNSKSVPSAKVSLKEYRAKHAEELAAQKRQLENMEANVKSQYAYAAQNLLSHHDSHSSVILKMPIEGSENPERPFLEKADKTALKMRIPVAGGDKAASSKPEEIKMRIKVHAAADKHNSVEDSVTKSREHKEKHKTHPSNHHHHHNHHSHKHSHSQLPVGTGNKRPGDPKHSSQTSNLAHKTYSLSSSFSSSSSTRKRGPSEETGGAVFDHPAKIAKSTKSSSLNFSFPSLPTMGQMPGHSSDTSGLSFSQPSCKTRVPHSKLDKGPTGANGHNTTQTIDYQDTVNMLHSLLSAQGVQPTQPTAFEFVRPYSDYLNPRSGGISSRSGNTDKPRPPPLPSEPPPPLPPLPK
Series [10] deals with CDK7/cyclin H (Homo sapiens, UniProt P50613). Put plainly: Kinase assay, incorporation of radioactive phosphate from ATP. It is filed as biochemical. Conditions: 100 μM ATP, 30° C.; read-out: Kinase inhibition Ki CDK7/cyclin H. As for the experimental part:
as §2

Series [11] has as its target CDK1/cyclin B (Homo sapiens, UniProt P06493). Described as above. It is filed as biochemical. The following applies: 100 μM ATP, 30° C.; read-out: Kinase inhibition Ki CDK1/cyclin B. As for the experimental part:
as §2

Series [12] deals with GSK3β (Homo sapiens, UniProt P49841). Described as above. The following applies: 100 μM ATP, 30° C.; read-out: Kinase inhibition Ki GSK3β. It is filed as biochemical. As for the experimental part: as §2
GSK3β, sequence (P49841 whole entry): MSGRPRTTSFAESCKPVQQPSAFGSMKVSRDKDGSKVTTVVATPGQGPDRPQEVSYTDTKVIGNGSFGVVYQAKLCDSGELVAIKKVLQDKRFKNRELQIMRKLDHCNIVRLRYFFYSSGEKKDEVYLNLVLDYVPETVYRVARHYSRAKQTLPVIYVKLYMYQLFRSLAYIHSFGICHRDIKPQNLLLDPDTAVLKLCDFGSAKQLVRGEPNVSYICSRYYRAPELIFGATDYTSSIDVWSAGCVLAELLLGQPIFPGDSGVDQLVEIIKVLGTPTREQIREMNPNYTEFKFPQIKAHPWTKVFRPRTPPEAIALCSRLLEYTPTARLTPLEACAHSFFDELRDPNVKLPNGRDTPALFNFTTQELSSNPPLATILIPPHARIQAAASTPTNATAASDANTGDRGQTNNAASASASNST
The mark [13] stands for this setting: average of A549, HT29, Saos-2, read-out: 72-h MTT IC50 Average.
The mark [14] stands for this setting: in vitro, read-out: IC50 value (average) against one or more transformed human cell lines, 72-h MTT cytotoxicity assay.

CDK1/cyclin B, sequence (P06493 whole entry): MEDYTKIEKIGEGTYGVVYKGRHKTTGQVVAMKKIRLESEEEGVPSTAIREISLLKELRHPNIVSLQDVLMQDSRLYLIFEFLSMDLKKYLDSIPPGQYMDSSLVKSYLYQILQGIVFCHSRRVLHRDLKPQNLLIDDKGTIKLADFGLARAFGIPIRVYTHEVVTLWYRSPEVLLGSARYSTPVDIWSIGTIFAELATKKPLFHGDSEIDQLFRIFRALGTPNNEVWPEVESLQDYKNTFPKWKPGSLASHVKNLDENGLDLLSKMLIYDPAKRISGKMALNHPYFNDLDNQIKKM
CDK1/cyclin B, sequence (P14635 whole entry partner): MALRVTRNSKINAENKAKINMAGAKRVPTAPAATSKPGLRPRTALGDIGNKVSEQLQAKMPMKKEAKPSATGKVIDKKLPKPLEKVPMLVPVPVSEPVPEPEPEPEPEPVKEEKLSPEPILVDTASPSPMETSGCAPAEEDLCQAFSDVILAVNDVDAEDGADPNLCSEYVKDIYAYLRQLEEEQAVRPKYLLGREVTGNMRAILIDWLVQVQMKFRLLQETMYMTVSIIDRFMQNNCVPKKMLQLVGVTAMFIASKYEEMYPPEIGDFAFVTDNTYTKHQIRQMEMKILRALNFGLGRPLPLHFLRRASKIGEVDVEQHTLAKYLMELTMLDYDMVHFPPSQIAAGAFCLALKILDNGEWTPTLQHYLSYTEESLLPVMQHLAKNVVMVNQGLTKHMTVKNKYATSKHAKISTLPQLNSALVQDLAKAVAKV
CDK7/cyclin H, sequence (P50613 whole entry): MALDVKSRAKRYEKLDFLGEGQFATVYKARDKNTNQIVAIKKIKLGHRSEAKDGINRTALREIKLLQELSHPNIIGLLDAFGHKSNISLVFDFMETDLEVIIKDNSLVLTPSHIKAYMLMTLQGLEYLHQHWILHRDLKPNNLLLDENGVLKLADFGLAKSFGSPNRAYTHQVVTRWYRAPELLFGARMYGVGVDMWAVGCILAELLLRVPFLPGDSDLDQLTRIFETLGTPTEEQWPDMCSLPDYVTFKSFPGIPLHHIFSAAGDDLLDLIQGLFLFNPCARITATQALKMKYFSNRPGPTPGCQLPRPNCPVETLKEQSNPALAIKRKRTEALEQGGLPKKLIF
CDK7/cyclin H, sequence (P51946 whole entry partner): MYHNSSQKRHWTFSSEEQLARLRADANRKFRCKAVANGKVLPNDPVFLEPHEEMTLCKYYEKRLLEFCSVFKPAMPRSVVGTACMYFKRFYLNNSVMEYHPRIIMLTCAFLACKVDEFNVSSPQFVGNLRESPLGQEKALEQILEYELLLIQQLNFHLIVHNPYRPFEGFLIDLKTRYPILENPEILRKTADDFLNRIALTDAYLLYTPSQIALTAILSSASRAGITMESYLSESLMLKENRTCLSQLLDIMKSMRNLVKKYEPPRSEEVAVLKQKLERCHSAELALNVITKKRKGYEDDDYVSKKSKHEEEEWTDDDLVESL

In the case of `CNc1nc(C)c(-c2ccnc(Nc3ccc(Cl)nc3)n2)s1` [Compound 9, (6-Chloro-pyridin-3-yl)-[4-(4-methyl-2-methylamino-thiazol-5-yl)-pyrimidin-2-yl]-amine], the IC50 was 5200 nM in [1]; 4700 nM in [2]; 3700 nM in [3]; 4600 ± 800 nM in series [4] (setting [13]); less than 10000 nM in series [4] (setting [14]). Moreover, the Ki in [5] is 1000 nM; in series [6], 480 nM; in series [7], 80 nM; in series [8], 980 nM; in series [9], 110 nM.

`Cc1nc(C)c(-c2ccnc(Nc3ccc[n+](C)c3)n2)s1` [Compound 2, 3-[4-(2,4-Dimethyl-thiazol-5-yl)-pyrimidin-2-ylamino]-1-methyl-pyridinium] registered a melting point of 297 to 300 °C. The same molecule had an IC50 in [1] of 48500 nM. In [2], the IC50 was 86000 nM. In series [3], the IC50 was found to be 11600 nM. Also, in series [4] (setting [13]), the IC50 turned out to be 48700 ± 37200 nM. The Ki in [7] is 1500 nM. Besides, the Ki in [8] stood at 4100 nM.

With `Cc1nc(C)c(-c2ccnc(Nc3ccc(N4CCCC4)nc3)n2)s1` [Compound 14, [4-(2,4-Dimethyl-thiazol-5-yl)-pyrimidin-2-yl]-(6-pyrrolidin-1-yl-pyridin-3-yl)-amine], the IC50 in [1] came to 320 nM; in series [3] it was 300 nM; in series [4] (setting [13]), 300 nM. Further, the Ki in series [5] came out at 120 nM; in series [6], 1400 nM; in [10] it was 730 nM; in series [8] it was 2600 nM; in series [9], 100 nM; in [11], 2100 nM.

Consider `Cc1nc(C)c(-c2ccnc(Nc3ccc(Cl)nc3)n2)s1` [Compound 3, (6-Chloro-pyridin-3-yl)-[4-(2,4-dimethyl-thiazol-5-yl)-pyrimidin-2-yl]-amine], for which the IC50 in [1] was 4400 nM; in series [2] it was 2800 nM; in [3], 9800 nM; in series [4] (setting [13]), 5700 ± 3700 nM; in series [4] (setting [14]) it was less than 10000 nM. Also, the Ki in [5] worked out at 860 nM; in series [6], 1700 nM; in [10], 7200 nM; in series [7] it was 350 nM; in [8], 660 nM; in [12], 110 nM. The Ki in series [9] stood at 970 nM; in series [11], 4200 nM.

By IC50 is commonly meant the point on the concentration scale where inhibition reaches its midpoint. Usually melting point stands for the temperature, or range, at which the solid turns liquid.
